Assay results reported in ChEMBL document CHEMBL1201862, “PubChem BioAssay data set” (2004).
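Results reflect a 48-hour exposure of cells in 96-well plates to compound at five concentrations. At the GI50, growth is halved.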 Active and inactive are the calls of the source. Cut-off read from the data, not from the text of the source: active = GI50 up to about 1.1 µM and inactive = higher.

How the values were obtained:
Assay in all cases: NCI anticancer screen, dose series, 48 h
T47D = system: T47D
MDA-MB-435 = system: MDA-MB-435
BT-549 = system: BT-549
HL-60 = system: HL-60
CCRF-CEM = system: CCRF-CEM
COLO 205 = system: COLO 205
Hs-578T = system: Hs-578T
SK-MEL-28 = system: SK-MEL-28
HT-29 = system: HT-29
MDA-MB-231 = system: MDA-MB-231
DU-145 = system: DU-145
NCI-H460 = system: NCI-H460
CAKI-1 = system: CAKI-1
RXF 393 = system: RXF 393
NCI-H23 = system: NCI-H23
HCT-116 = system: HCT-116
RPMI-8226 = system: RPMI-8226
HCT-15 = system: HCT-15
SNB-19 = system: SNB-19
UACC-257 = system: UACC-257
A549 = system: A549
OVCAR-3 = system: OVCAR-3
PC-3 = system: PC-3
A498 = system: A498
NCI-H226 = system: NCI-H226
OVCAR-5 = system: OVCAR-5
SF-268 = system: SF-268
MDA-N = system: MDA-N
786-0 = system: 786-0
OVCAR-8 = system: OVCAR-8
M14 = system: M14
SNB-75 = system: SNB-75
SK-MEL-2 = system: SK-MEL-2
KM12 = system: KM12
SF-539 = system: SF-539
UO-31 = system: UO-31
IGROV-1 = system: IGROV-1
MOLT-4 = system: MOLT-4
HOP-62 = system: HOP-62
NCI/ADR-RES = system: NCI/ADR-RES
SK-MEL-5 = system: SK-MEL-5
TK-10 = system: TK-10
SW-620 = system: SW-620
U-251 = system: U-251
SR = system: SR
SN12C = system: SN12C
MCF7 = system: MCF7
EKVX = system: EKVX
K562 = system: K562
UACC-62 = system: UACC-62
SF-295 = system: SF-295
ACHN = system: ACHN

SMILES: NNc1nncc2[nH]nnc12
- GI50 (T47D): > 100 µM (inactive)
- GI50 (MDA-MB-435): > 100 µM (inactive)
- GI50 (BT-549): > 100 µM (inactive)
- GI50 (HL-60): 48.1 µM (inactive)
- GI50 (CCRF-CEM): > 100 µM (inactive)
- GI50 (COLO 205): > 100 µM (inactive)
- GI50 (Hs-578T): > 100 µM (inactive)
- GI50 (SK-MEL-28): > 100 µM (inactive)
- GI50 (HT-29): > 100 µM (inactive)
- GI50 (MDA-MB-231): > 100 µM (inactive)
- GI50 (DU-145): > 100 µM (inactive)
- GI50 (NCI-H460): > 100 µM (inactive)
- GI50 (CAKI-1): > 100 µM (inactive)
- GI50 (RXF 393): > 100 µM (inactive)
- GI50 (NCI-H23): > 100 µM (inactive)
- GI50 (HCT-116): > 100 µM (inactive)
- GI50 (RPMI-8226): > 100 µM (inactive)
- GI50 (HCT-15): > 100 µM
- GI50 (SNB-19): > 100 µM (inactive)
- GI50 (UACC-257): > 100 µM (inactive)
- GI50 (A549): > 100 µM (inactive)
- GI50 (OVCAR-3): > 100 µM (inactive)
- GI50 (PC-3): > 100 µM (inactive)
- GI50 (A498): > 100 µM (inactive)
- GI50 (NCI-H226): > 100 µM (inactive)
- GI50 (OVCAR-5): > 100 µM (inactive)
- GI50 (SF-268): > 100 µM (inactive)
- GI50 (MDA-N): > 100 µM (inactive)
- GI50 (786-0): > 100 µM (inactive)
- GI50 (OVCAR-8): > 100 µM (inactive)
- GI50 (M14): > 100 µM (inactive)
- GI50 (SNB-75): 5.74 µM (inactive)
- GI50 (SK-MEL-2): > 100 µM (inactive)
- GI50 (KM12): > 100 µM (inactive)
- GI50 (SF-539): > 100 µM (inactive)
- GI50 (UO-31): > 100 µM (inactive)
- GI50 (IGROV-1): > 100 µM (inactive)
- GI50 (MOLT-4): > 100 µM (inactive)
- GI50 (HOP-62): > 100 µM (inactive)
- GI50 (NCI/ADR-RES): > 100 µM (inactive)
- GI50 (SK-MEL-5): > 10 µM (inactive)
- GI50 (TK-10): > 100 µM (inactive)
- GI50 (SW-620): > 100 µM (inactive)
- GI50 (U-251): > 100 µM (inactive)
- GI50 (SR): 41.5 µM (inactive)
- GI50 (SN12C): > 100 µM (inactive)
- GI50 (MCF7): > 100 µM (inactive)
- GI50 (EKVX): > 100 µM (inactive)
- GI50 (K562): > 100 µM (inactive)
- GI50 (UACC-62): > 100 µM (inactive)
- GI50 (SF-295): > 100 µM (inactive)
- GI50 (ACHN): > 100 µM (inactive)
